# Measurements reported in patent US4436726A, “N-Acylpeptide compound, processes for the preparation thereof and the pharmaceutical compositions” (Fujisawa Pharmaceutical Co., Ltd., priority 1980, dated 1984).
# Experiments:
# [1] = tested on: complement serum (guinea pig complement); assay: Anticomplementary activity (inhibition of hemolysis of sensitized erythrocytes); type: biochemical; details: 50% hemolysis inhibition, 37° C.
# Method: The anticomplementary activity of the test compound was measured according to the test method as described in Experimental Immunochemistry, edited by E. A. Kabat and M. M. Mayer, 2nd ed., Springfield, III: C. C. Thomas (1961) pages 133-240.
# A mixture of 1 ml of a 5-fold diluted solution of a Veronal buffer solution containing 1.5×10^-4 M Ca^2+ and 5×10^-4 M Mg^2+ and isotonic gelatin, 1.5 ml of complement serum (guinea pig complement) diluted 400 times with a physiological saline solution and 0.05 ml of a solution of a test compound (in this case, a test compound was dissolved in a physiological saline solution) was incubated at 37° C. for 30 minutes. To the said mixture there was added 0.4 ml of sensitized erythrocytes suspension containing 5×10^8 cells/ml and said mixture was incubated at 37° C. further for 60 minutes. After the incubation, the mixture was centrifuged in 3,000 rpm at 4° C. for 10 minutes.
# The results are expressed in Table 1 as the concentration of each drugs inhibiting the hemolysis activity by 50% (IC50).
# [2] = tested on: blood clot (fresh rabbit blood, urokinase, bovine thrombin); assay: Fibrinolytic activity (modified diluted whole blood clot lysis time method); type: biochemical; details: 50 μl of test compound (300 μg/ml), 37° C.
# Method: The enhancement of the fibrinolytic activity of the test compounds was measured according to the modified diluted whole blood clot lysis time method described in
# G. R. Fearnley, G. V. Balmforth, E. Fearnley: Clin. Sci. 16, 645-650 (1957)
# I. S. Chohan et al: Thrombos. Diathes. Haemorrh. 33, 226 (1975) and
# I. M. Nilsson et al: Handbook of Experimental Pharmacology 46, 110
# Fresh rabbit blood was diluted 20 times with 1/15 M phosphate buffer (pH 7.4). A mixture of 400 μl of the diluted blood solution and 50 μl of a test compound (300 μg/ml) was incubated at 37° C. for 30 minutes. To the mixture were added 50 μl of urokinase solution (100 IU/ml) and 50 μl of bovine thrombin (100 N.I.H. u/ml). The clot produced in tubes was incubated at 37° C. for various periods of time. At the end of each incubation interval (15 minutes interval), 2.5 ml of distilled water was added to lyse erythrocytes released from clotted blood and absorbance (OD541) of the supernatant separated by centrifugation (3,000 rpm for 10 minutes) from the reaction mixture was measured. The fibrinolytic activity of the test compound was determined by the time in minutes needed for the complete lysis of the blood clot.
# In the absence of a test compound, it took more than 2 hours to lyse blood clot in the above condition. However, blood clot was lysed in the presence of test compounds after 15 minutes (symbol: ++) and 45 minutes (symbol: +) incubation, respectively. Samples which were incapable of lysing blood clot within 1 hour incubation were expressed as symbol (-).
SMILES,Anticomplementary Activity (IC50) [1] [µg/mL],Fibrinolytic Activity (time needed for complete lysis of the blood clot) [2]
"CC(C)CCCCCCCCCCCC(=O)OC(CCCCCCCCCCCC(C)C)CC(=O)NCC(=O)N[C@H](C(=O)O)[C@@H](C)O (stereo partly drawn) [Example 11, N-[N-[15-methyl-3-(13-methyltetradecanoyloxy)hexadecanoyl]glycyl]-L-threonine]",0.36,+ (45 minutes (symbol: +) incubation)
"CCCCCCCCCCCCCCCC(=O)OC(CCCCCCCCCCCCCCC)CC(=O)NCCCCC(=O)N[C@H](C(=O)O)[C@@H](C)O (stereo partly drawn) [Example 34, N-[5-(3-hexadecanoyloxyoctadecanoyl)aminovaleryl]-L-threonine]",0.02,+ (45 minutes (symbol: +) incubation)
"CC(C)CCCCCCCCCCCC(=O)OC(CCCCCCCCCCCC(C)C)CC(=O)N[C@@H](CO)C(=O)O (stereo partly drawn) [Example 20, N-[15-methyl-3-(13-methyltetradecanoyloxy)hexadecanoyl]-L-serine]",2.8,+ (45 minutes (symbol: +) incubation)
"CCCCCCCCCCCCCCCC(=O)OC(CCCCC)CC(=O)NCC(=O)N[C@@H](CO)C(=O)O (stereo partly drawn) [Example 4, N-[N-(3-hexadecanoyloxyoctanoyl)glycyl]-L-serine]",1.1,
"CC(C)CCCCCCCCCCCC(=O)OC(CCCCCCCCCCCC(C)C)CC(=O)NCCC(=O)N[C@H](C(=O)O)[C@@H](C)O (stereo partly drawn) [Example 8, N-[N-[15-methyl-3-(13-methyltetradecanoyloxy)hexadecanoyl]-β-alanyl]-L-threonine]",0.04 to 0.06,
"CC(C)CCCCCCCCCCCC(=O)OC(CCCCCCCCCCCC(C)C)CC(=O)NCC(=O)N[C@@H](Cc1ccccc1)C(=O)O (stereo partly drawn) [Example 15, N-[N-[15-methyl-3-(13-methyltetradecanoyloxy)hexadecanoyl]glycyl]-L-phenyl alanine]",2.8,++ (blood clot was lysed in the presence of test compounds after 15 minutes (symbol: ++))
"CCCCCCCCCCCCCCCC(=O)OC(CCCCCCCCCCCCCCC)CC(=O)NCC(=O)N[C@@H](Cc1ccccc1)C(=O)O (stereo partly drawn) [Example 38, N-[N-(3-hexadecanoyloxyoctadecanoyl)glycyl]-L-phenylalanine]",3.4,+ (45 minutes (symbol: +) incubation)
"CCCCCCCCCCCCCCCC(=O)OC(CCCCCCCCCCCCCC)C(=O)NCCC(=O)N[C@H](C(=O)O)[C@@H](C)O (stereo partly drawn) [Example 36, N-[N-(2-hexadecanoyloxyhexadecanoyl)-β-alanyl]-L-threonine]",0.08,+ (45 minutes (symbol: +) incubation)
"CC(C)CCCCCCCCCCCC(=O)OC(CCCCCCCCCCCC(C)C)CC(=O)NCCC(=O)N[C@@H](CO)C(=O)O (stereo partly drawn) [Example 9, N-[N-[15-methyl-3-(13-methyltetradecanoyloxy)hexadecanoyl]-β-alanyl]-L-serine]",0.1,+ (45 minutes (symbol: +) incubation)
"CCCCCCCCCCCCCCCC(=O)OC(CCCCCCCCCCCCCCC)CC(=O)N[C@@H](Cc1ccccc1)C(=O)O (stereo partly drawn) [Example 26, N-(3-hexadecanoyloxyoctadecanoyl)-L-phenylalanine]",3.5,+ (45 minutes (symbol: +) incubation)
"CC(C)CCCCCCCCCCCC(=O)OC(CCCCCCCCCCCC(C)C)CC(=O)NCC(=O)N[C@@H](CO)C(=O)O (stereo partly drawn) [Example 1, N-[N-[15-methyl-3-(13-methyltetradecanoyloxy)hexadecanoyl]glycyl]-L-serine]",1.0,
"CCCCCCCCCCCCCCCC(=O)OC(CCCCCCCCCCCCCCC)CC(=O)NCCC(=O)N[C@H](C(=O)O)[C@@H](C)O (stereo partly drawn) [Example 7, N-[N-(3-hexadecanoyloxyoctadecanoyl)-β-alanyl]-L-threonine]",0.02 to 0.03,
"CC(C)CCCCCCCCCCCC(=O)OC(CCCCCCCCCCCC(C)C)CC(=O)N[C@@H](C)C(=O)N[C@@H](CO)C(=O)O (stereo partly drawn) [Example 12, N-[N-[15-methyl-3-(13-methyltetradecanoyloxy)hexadecanoyl]L-alanyl]-L-serine]",0.59,
"CCCCCCCCCCCCCCCC(=O)OC(CCCCCCCCCCCCCCC)CC(=O)NCC(=O)N[C@@H](Cc1c[nH]c2ccccc12)C(=O)O (stereo partly drawn) [Example 43, N-[N-(3-hexadecanoyloxyoctadecanoyl)glycyl]-L-tryptophan]",5.11,+ (45 minutes (symbol: +) incubation)
"CCCCCCCCCCCCCCCC(=O)OC(CCCCCCCCCCCCCC)C(=O)NCC(=O)N[C@@H](CO)C(=O)O (stereo partly drawn) [Example 35, N-[N-(2-hexadecanoyloxyhexadecanoyl)glycyl]-L-serine]",0.03,+ (45 minutes (symbol: +) incubation)
"CCCCCCCCCCCCCCCC(=O)OC(CCCCCCCCCCCCCCC)CC(=O)N[C@H](C(=O)N[C@H](C(=O)O)[C@@H](C)O)C(C)C (stereo partly drawn) [Example 29, N-[N-(3-hexadecanoyloxyoctadecanoyl)-L-valyl]-L-threonine]",0.59,
"CCCCCCCCCCCCCCCC(=O)OC(CCCCCCCCCCCCCCC)CC(=O)N[C@@H](C)C(=O)N[C@H](C(=O)O)[C@@H](C)O (stereo partly drawn) [Example 14, N-[N-(3-hexadecanoyloxyoctadecanoyl)-L-alanyl]-L-threonine]",0.23,
"CC(C)CCCCCCCCCCCC(=O)OC(CCCCCCCCCCCC(C)C)CC(=O)NCC(=O)O (stereo not drawn) [Example 19, N-[15-methyl-3-(13-methyltetradecanoyloxy)hexadecanoyl]glycine]",4.0,+ (45 minutes (symbol: +) incubation)
"CCCCCCCCCCCC(=O)OC(CCCCCCCCCCC)CC(=O)NCC(=O)N[C@@H](CO)C(=O)O (stereo partly drawn) [Example 3, N-[N-(3-dodecanoyloxytetradecanoyl)glycyl]-L-serine]",0.12,
"CC(C)CCCCCCCCCCCC(=O)OC(CCCCCCCCCCCC(C)C)CC(=O)NCC(=O)N[C@@H](Cc1ccc(O)cc1)C(=O)O (stereo partly drawn) [Example 18, N-[N-[15-methyl-3-(13-methyltetradecanoyloxy)hexadecanoyl]glycyl]-L-tyrosine]",3.2,+ (45 minutes (symbol: +) incubation)
"CC(C)CCCCCCCCCCCC(=O)OC(CCCCCCCCCCCC(C)C)CC(=O)NCCC(=O)N[C@@H](Cc1c[nH]cn1)C(=O)O (stereo partly drawn) [Example 16, N-[N-[15-methyl-3-(13-methyltetradecanoyloxy)hexadecanoyl]-β-alanyl]-L-histidine]",4.2,
"CC(C)CCCCCCCCCCCC(=O)OC(CCCCCCCCCCCC(C)C)CC(=O)N[C@@H](C)C(=O)N[C@H](C(=O)O)[C@@H](C)O (stereo partly drawn) [Example 13, N-[N-[15-methyl-3-(13-methyltetradecanoyloxy)hexadecanoyl]-L-alanyl]-L-thr eonine]",0.72,
"CCCCCCCCCCCCCCCC(=O)OC(CCCCCCCCCCCCCCC)CC(=O)NCCC(=O)N[C@@H](CO)C(=O)O (stereo partly drawn) [Example 10, N-[N-(3-hexadecanoyloxyoctadecanoyl)-β-alanyl]-L-serine]",0.03 to 0.04,
"CCCCCCCCCCCCCCCC(=O)OC(CCCCCCCCCCCCCCC)CC(=O)NCCC(=O)N[C@@H](Cc1ccccc1)C(=O)O (stereo partly drawn) [Example 32, N-[N-(3-hexadecanoyloxyoctadecanoyl)-β-alanyl]-L-phenylalanine]",1.32,++ (blood clot was lysed in the presence of test compounds after 15 minutes (symbol: ++))
"CCCCCCCCCCCCCCCC(=O)OC(CCCCCCCCCCCCCCC)CC(=O)NCC(=O)O (stereo not drawn) [Example 27, N-(3-hexadecanoyloxyoctadecanoyl)glycine]",0.44,+ (45 minutes (symbol: +) incubation)
